According to patent US8349553B2, “Jasmonate based assays for identifying compounds that selectively inhibit mitochondrial bound hexokinases” (Ramot at Tel Aviv University Ltd., priority 2007, dated 2013):

Tests used:
[1] = test system: HKI and HKII (mitochondrial fraction of CT-26 tumor); test: Western blot of supernatants with anti-HKI and anti-HKII, CT-26 tumor mitochondrial fraction; format: biochemical, murine
Experimental: (§1) For analysis of hexokinase levels, the experiments were performed similarly to hexokinase detachment assay described above, and unbound hexokinase in the supernatant fraction was extracted as described in Fingrut (2005). Samples were separated by sodium dodecylsulfate-polyacrylamide gel (7%) electrophoresis followed by immunoblotting. The blots were probed with specific anti-HKI or anti-HKII antibodies (1:300, Santa-Cruz Biotechnology, CA, USA). Hexokinase-antibody complexes were stained with HRP-conjugated antibody (1:10,000, Santa-Cruz Biotechnology, CA, USA). Enhanced chemiluminescence (ECL) reagent (Biological Industries, Beit Haemek, Israel) was added, and the blots were exposed to ECL film (Eastman Kodak, Rochester, N.Y., USA). In order to verify physical detachment of mitochondrial hexokinase, similar preparations were separated on SDS-PAGE, electroblotted to nitrocellulose membrane and probed with anti-HKI and anti-HKII antibodies.

[2] = test system: HKI and HKII (mitochondrial fraction of Molt-4 cells); test: Western blot of supernatants with anti-HKI and anti-HKII, Molt-4 mitochondrial fraction; format: biochemical, human; details: Molt-4 mitochondrial fraction supernatant
Experimental: as §1, with “Hexokinase detachment from mitochondrial fraction is not limited” for “In order”, “CT-26 colon carcinoma. Mitochondrial fractions isolated from different cancer cells, namely Molt-4 cells, BCL-1 leukemic cells and B16 melanoma tumors were incubated for 30 minutes at 37° C., and the activity” for “verify physical detachment”, “unbound hexokinase was measured and compared to the activity of spontaneously (control) detached hexokinase. […] The supernatant of the experiments” for “mitochondrial hexokinase, similar preparations”, “SDS-PAGE” for “SDS-PAGE, electroblotted to nitrocellulose membrane”

B16 melanoma = test: Cellular ATP levels (CellTiter-Glo), B16; format: cell-based, murine; details: 60 minutes of exposure, various concentrations
Experimental: The CellTiter-Glo™ Luminescent Cell Viability Assay (Promega, Madison, Wis., U.S.A.) was employed (Fingrut, 2005). Upon completion of a given experiment, plates were equilibrated to room temperature. CellTiter-Glo™ reagent containing luciferin and luciferase was added to each well and the plates were mixed on an orbital shaker for 2 minutes to induce cell lysis. In the presence of ATP, Mg^2+ and molecular oxygen, mono-oxidation of luciferin is catalyzed by luciferase, generating a luminescence signal. Cells were then incubated for 10 minutes at room temperature to stabilize the luminescence signal. Luminescence was recorded using Kodak digital science—Image station 440 CD. Luminescence is directly proportional to ATP concentration. ATP depletion (% of control) was calculated in the following way: {(luminescence of control cells−luminescence of drug-treated cells)/luminescence of control cells}×100. In order to test the correlation between cellular ATP levels and the release of hexokinase from mitochondrial fraction different cancer cells, namely Molt-4 cells, BCL-1 leukemic cells and B16 melanoma tumors were exposed to various methyl jasmonate concentrations. […] CT26 and Molt-4 cells were then seeded in 24 well plates. CT26 cells were allowed to adhere over night. Cells were exposed to methyl jasmonate (MJ; 3 mM) for 1 hour. Trypan blue exclusion test was performed and cells were counted.

[3] = test system: mitochondrial fraction of mouse brain; test: Mitochondrial swelling assay, mouse brain; format: biochemical; details: 1 mM
Experimental: Freshly isolated mitochondrial fraction was washed with extraction buffer to remove EDTA and resuspended in swelling buffer (Mannitol 220 mM, Sucrose 70 mM, Tris, pH 7.2, 150 mM, KH2PO4, pH 7.2, 0.2 mM; 0.2 mg in 100 μL) freshly supplemented with potassium succinate, pH 7.2, 5 mM. Every component was sodium-free. Optical density was monitored at the wave length of 540 nm for 2-5 minutes before the addition of the examined reagents, e.g. methyl jasmonate, and for additional 20 minutes afterwards.
In order to examine the consistency of the relationship between the ability of methyl jasmonate to detach bound hexokinase and mitochondrial damage, methyl jasmonate was tested in mouse brain in comparison to mouse liver. The comparison was performed due to known differences of mitochondrial hexokinase content between mouse brain vs. its liver. It is well established in the art that brain mitochondrial fraction is rich in bound hexokinase, while liver mitochondrial fraction is essentially devoid of it (Wilson, 1995). […] Mitochondrial fractions were incubated for either 10, 30 or 60 minutes at 37° C. The activity of unbound hexokinase was measured and compared to the activity of spontaneously (control) detached hexokinase. Consequently, the ability of methyl jasmonate to induce swelling in mitochondrial fraction isolated from mouse brain and liver was tested.

[4] = test system: CT26 cells transfected with pcDNA3-HKII or pcDNA3; test: ATP depletion in CT26 cells over-expressing hexokinase II; format: cell-based, murine; details: 60 minutes exposure
Experimental: The CellTiter-Glo™ Luminescent Cell Viability Assay (Promega, Madison, Wis., U.S.A.) was employed (Fingrut, 2005). Upon completion of a given experiment, plates were equilibrated to room temperature. CellTiter-Glo™ reagent containing luciferin and luciferase was added to each well and the plates were mixed on an orbital shaker for 2 minutes to induce cell lysis. In the presence of ATP, Mg^2+ and molecular oxygen, mono-oxidation of luciferin is catalyzed by luciferase, generating a luminescence signal. Cells were then incubated for 10 minutes at room temperature to stabilize the luminescence signal. Luminescence was recorded using Kodak digital science—Image station 440 CD. Luminescence is directly proportional to ATP concentration. ATP depletion (% of control) was calculated in the following way: {(luminescence of control cells−luminescence of drug-treated cells)/luminescence of control cells}×100.

lymphomas = details: mice; cited from earlier work

CC/C=C\CC1C(=O)CCC1CC(=O)OC (stereo not drawn) [methyl jasmonate]
physical release of HKI and HKII into supernatant (immunoblot) [1]: release of both HKI and HKII were demonstrated | detachment of hexokinase confirmed by immunoblot (anti-HKI, anti-HKII) [2]: detachment of hexokinase from mitochondrial fraction of the various cancer cells was further confirmed | cellular ATP level (B16 melanoma): significant and dose-dependent decrease of cellular ATP | mitochondrial swelling (optical density at 540 nm) [3]: led to swelling in brain | depletion of cellular ATP levels, hexokinase II over-expressing vs. control cells [4]: decreased in cells with higher expression of hexokinase II | prevention of the development of lymphomas (lymphomas): effective in preventing the development of lymphomas in mice
